Results taken from paper PMC3603284 (Therapeutic drug monitoring, 2013).

Assay: Week 2 plasma trough protease inhibitor concentration
Parameters: species or system human
Settings: in vivo

decrease in the mean trough concentration per C allele (human, 2 weeks) | week 2 trough measures below the assay limit of quantification (200 ng/ml) (human, 2 weeks) | association of SLCO1B1 521T→C with week 2 trough concentration | Compound
35% |  |  | CC(C)CN(C[C@@H](O)[C@H](Cc1ccccc1)NC(=O)O[C@H]1CCOC1)S(=O)(=O)c1ccc(N)cc1 [amprenavir]
 | 86% | no significant association | CC(C)c1nc(CN(C)C(=O)N[C@H](C(=O)N[C@@H](Cc2ccccc2)C[C@H](O)[C@H](Cc2ccccc2)NC(=O)OCc2cncs2)C(C)C)cs1 [ritonavir]
 |  | no significant association | CC(C)(C)NC(=O)[C@@H]1C[C@@H]2CCCC[C@@H]2CN1C[C@@H](O)[C@H](Cc1ccccc1)NC(=O)[C@H](CC(N)=O)NC(=O)c1ccc2ccccc2n1 [saquinavir]
